Results published in paper PMC4512978, “Synthesis and evaluation in rats of homologous series of [^18F]-labeled dopamine D2/3 receptor agonists based on the 2-aminomethylchroman scaffold as potential PET tracers” (EJNMMI Research, 2015).

Columns and labels:
[1] = system: D2/3R; assay: MicroPET study in rats; assay type: in vivo, Sprague-Dawley rats
[2] = Ex vivo tissue uptake after the PET scan (gamma-counter); assay type: in vivo, Sprague-Dawley rats
Method: After the end of the PET scans (i.e., 98 ± 8 min after tracer injection), anesthetized animals were sacrificed by heart extirpation and dissected. Samples of brain and peripheral tissues were taken. All samples were weighed, and their radioactivity was measured in a gamma-counter.

[3] = raclopride 1 mg/kg, after PET scan

SMILES: Oc1ccc2c(c1)O[C@@H](CNCCN1CCN(c3ccc(OCC[18F])cc3)CC1)CC2 [[^18F]FEt-AMC15, (R) 1-(4-(2-[^18F]fluoroethoxy)phenyl)-4-(4-(7-hydroxychroman-2-yl)-3-azabutyl)-piperazine]
- effect of raclopride pre-treatment on radioactivity distribution in the brain ([1]; 1 mg/kg raclopride): no detectable alterations of radioactivity distribution in the brain
- blood-brain barrier penetration ([1]; PET in rats): essentially did not penetrate the BBB
- Brain uptake, peak ([1]; PET, 3 min after radiotracer injection, control rats): 0.2 % ID
- Brain uptake ([1]; PET, 60 min post-injection): 0.04 % ID
- Ex vivo uptake, Adipose tissue ([2]; RAC): 0.10±0.05 SUV
- Ex vivo uptake, Adrenal glands ([2]; RAC): 1.73±1.07 SUV
- Ex vivo uptake, Bladder ([2]; RAC): 0.69±0.30 SUV
- Ex vivo uptake, Blood cells ([2]; RAC): 0.05±0.04 SUV
- Ex vivo uptake, Bone ([2]; RAC): 0.12±0.08 SUV
- Ex vivo uptake, Bone marrow ([2]; RAC): 0.91±0.53 SUV
- Ex vivo uptake, Caecum ([2]; RAC): 0.91±1.10 SUV
- Ex vivo uptake, Duodenum ([2]; RAC): 22.8±36.6 SUV
- Ex vivo uptake, Heart ([2]; RAC): 0.15±0.10 SUV
- Ex vivo uptake, Kidney ([2]; RAC): 0.61±0.51 SUV
- Ex vivo uptake, Large intestine ([2]; RAC): 1.20±1.48 SUV
- Ex vivo uptake, Large intestine content ([2]; RAC): 0.06±0.04 SUV
- Ex vivo uptake, Liver ([2]; RAC): 1.47±1.56 SUV
- Ex vivo uptake, Lung ([2]; RAC): 1.19±0.40 SUV
- Ex vivo uptake, Muscle ([2]; RAC): 0.15±0.11 SUV
- Ex vivo uptake, Pancreas ([2]; RAC): 0.92±0.77 SUV
- Ex vivo uptake, Plasma ([2]; RAC): 0.07±0.02 SUV
- Ex vivo uptake, Prostate ([2]; RAC): 0.42±0.10 SUV
- Ex vivo uptake, Small intestine ([2]; RAC): 11.1±18.4 SUV
- Ex vivo uptake, Small intestine content ([2]; RAC): 60.5±104 SUV
- Ex vivo uptake, Spleen ([2]; RAC): 1.62±1.15 SUV
- Ex vivo uptake, Stomach ([2]; RAC): 1.73±0.75 SUV
- Ex vivo uptake, Submandibular gland ([2]; RAC): 1.41±0.34 SUV
- Ex vivo uptake, Testes ([2]; RAC): 0.04±0.01 SUV
- Ex vivo uptake, Thymus ([2]; RAC): 0.43±0.15 SUV
- Ex vivo uptake, Urine ([2]; RAC): 2.32±3.35 SUV
- Ex vivo uptake, Whole blood ([2]; RAC): 0.12±0.08 SUV
- Ex vivo uptake, Adipose tissue ([2]; SAL): 0.18±0.09 SUV
- Ex vivo uptake, Adrenal glands ([2]; SAL): 1.53±0.58 SUV
- Ex vivo uptake, Bladder ([2]; SAL): 0.23±0.05 SUV
- Ex vivo uptake, Blood cells ([2]; SAL): 0.05±0.04 SUV
- Ex vivo uptake, Bone ([2]; SAL): 0.14±0.03 SUV
- Ex vivo uptake, Bone marrow ([2]; SAL): 0.98±0.36 SUV
- Ex vivo uptake, Caecum ([2]; SAL): 0.15±0.10 SUV
- Ex vivo uptake, Duodenum ([2]; SAL): 1.92±0.35 SUV
- Ex vivo uptake, Heart ([2]; SAL): 0.11±0.04 SUV
- Ex vivo uptake, Kidney ([2]; SAL): 0.40±0.10 SUV
- Ex vivo uptake, Large intestine ([2]; SAL): 0.15±0.07 SUV
- Ex vivo uptake, Large intestine content ([2]; SAL): 0.02±0.01 SUV
- Ex vivo uptake, Liver ([2]; SAL): 0.86±0.23 SUV
- Ex vivo uptake, Lung ([2]; SAL): 1.18±0.16 SUV
- Ex vivo uptake, Muscle ([2]; SAL): 0.07±0.04 SUV
- Ex vivo uptake, Pancreas ([2]; SAL): 0.75±0.27 SUV
- Ex vivo uptake, Plasma ([2]; SAL): 0.14±0.11 SUV
- Ex vivo uptake, Prostate ([2]; SAL): 0.38±0.15 SUV
- Ex vivo uptake, Small intestine ([2]; SAL): 0.18±0.07 SUV
- Ex vivo uptake, Small intestine content ([2]; SAL): 0.56±0.24 SUV
- Ex vivo uptake, Spleen ([2]; SAL): 1.52±0.68 SUV
- Ex vivo uptake, Stomach ([2]; SAL): 1.79±0.92 SUV
- Ex vivo uptake, Submandibular gland ([2]; SAL): 1.51±0.26 SUV
- Ex vivo uptake, Testes ([2]; SAL): 0.04±0.01 SUV
- Ex vivo uptake, Thymus ([2]; SAL): 0.49±0.09 SUV
- Ex vivo uptake, Urine ([2]; SAL): 0.69±0.33 SUV
- Ex vivo uptake, Whole blood ([2]; SAL): 0.06±0.03 SUV
- Ex vivo uptake, Brainstem [2, 3]: 0.03 ± 0.01 SUV
- Ex vivo uptake, Cerebellum [2, 3]: 0.03 ± 0.01 SUV
- Ex vivo uptake, Cortex [2, 3]: 0.03 ± 0.01 SUV
- Ex vivo uptake, Hippocampus [2, 3]: 0.03 ± 0.01 SUV
- Ex vivo uptake, Mean brain uptake [2, 3]: 0.03 ± 0.01 SUV
- Ex vivo uptake, Olfactory bulbs [2, 3]: 0.03 ± 0.02 SUV
- Ex vivo uptake, Parietal bone [2, 3]: 0.08 ± 0.03 SUV
- Ex vivo uptake, Pituitary [2, 3]: 1.08 ± 0.27 SUV
- Ex vivo uptake, Rest of brain [2, 3]: 0.03 ± 0.02 SUV
- Ex vivo uptake, Striatum [2, 3]: 0.03 ± 0.01 SUV
- Ex vivo uptake, Thalamus + hypothalamus [2, 3]: 0.03 ± 0.01 SUV
- Ex vivo uptake, Brainstem ([2]; saline, after PET scan): 0.03 ± 0.004 SUV
- Ex vivo uptake, Cerebellum ([2]; saline, after PET scan): 0.03 ± 0.01 SUV
- Ex vivo uptake, Cortex ([2]; saline, after PET scan): 0.03 ± 0.003 SUV
- Ex vivo uptake, Hippocampus ([2]; saline, after PET scan): 0.03 ± 0.02 SUV
- Ex vivo uptake, Mean brain uptake ([2]; saline, after PET scan): 0.03 ± 0.01 SUV
- Ex vivo uptake, Olfactory bulbs ([2]; saline, after PET scan): 0.03 ± 0.001 SUV
- Ex vivo uptake, Parietal bone ([2]; saline, after PET scan): 0.09 ± 0.03 SUV
- Ex vivo uptake, Pituitary ([2]; saline, after PET scan): 1.36 ± 0.30 SUV
- Ex vivo uptake, Rest of brain ([2]; saline, after PET scan): 0.02 ± 0.02 SUV
- Ex vivo uptake, Thalamus + hypothalamus ([2]; saline, after PET scan): 0.03 ± 0.01 SUV
- Ex vivo uptake, Striatum ([2]; saline, after PET scan (98 ± 8 min p.i.)): 0.02 ± 0.02 SUV
